Experimental data published in US20040248950A1, “Apo ai expression accelerating agent” (priority 2004, published 2004).

Experiments:
[1] = system: promoter region of the gene encoding human apoAI; assay: Activity to enhance the production of human apoAI: apoAI promoter-luciferase reporter assay in HepG2 cells; assay type: cell-based; conditions: minimum effective dose: concentration that intensified luciferase activity twice compared to control, 24 hours incubation, 0 to 10 μg/mL, read-out: MED
Experimental: Activity to Enhance the Production of Human apoAI
The promoter region of the gene encoding human apoAI was isolated and ligated upstream the structure gene of firefly luciferase to construct a reporter plasmid. The reporter plasmid and a marker plasmid conferring the neomycin resistance were co-infected to cell lines derived from human hepatoma, HepG2 cells, and the cell lines were incubated in a selection medium comprising DMEM medium containing 10% fetal calf serum supplemented with G418 (Final concentration: 0.7 mg/mL, Gibco) to give established strains that stably express the reporter molecule. The strains were seeded to a 96-well culture plates at a density of 50,000 cells per well, and incubated for 48 hours at 37° C. under 5% carbon dioxide. Then, a solution of the compounds according to the invention in DMSO was added to the wells at a final concentration of 0 to 10 μg/mL. After further incubation for 24 hours, the cells were added with a luciferase assay reagent (Piccagene LT 7.5 registered trade mark, Toyo Ink, KK), and the luciferase activity was determined using a luminometer (MicroBetaTM TRILUX, 1 sec/well, Wallac). The concentration of the compounds, which intensified the luciferase activity twice compared to that of control (DMSO without any compound of the invention added) was set as the minimal effective dose (MED).

Row | melting point | Compound | EC (2-fold luciferase activity) [1]
1 |  | c1ccc(-c2cn(-c3ccccc3)nn2)cc1 [Compound 123TA14-2] | 0.59 µM
2 |  | COc1ccc(-c2nc(-c3ccccc3)no2)cc1 [Compound 124OD35-12, 5-(4-Methoxyphenyl)-3-phenyl-1,2,4-oxadiazole] | 0.07 µM
3 |  | COc1ccc(-c2nc(-c3ccncc3)no2)cc1 [Compound 124OD35-13] | 0.7 µM
4 |  | c1ccc(-c2nc(-c3ccc(-c4csnn4)cc3)no2)cc1 [Compound 124OD35-15] | 0.18 µM
5 |  | c1ccc(Nc2nc(-c3ccccc3)ns2)cc1 [Compound 124TD35-6] | 0.93 µM
6 | 120 to 122 °C | CSc1ccc(-c2nnc(-c3ccccc3)o2)cc1 [Compound 134OD25-14] | 0.56 µM
7 | 135 to 140 °C | CN(C)c1ccc(-c2nnc(-c3ccccc3)o2)cc1 [Compound 134OD25-15, 2-(4-Dimethylaminophenyl)-5-phenyl-1,3,4-oxadiazole] | 0.27 µM
8 | 127 to 130 °C | C(=C\c1nnc(-c2ccccc2)o1)/c1ccco1 [Compound 134OD25-23, 2-[2-(2-Furyl)vinyl]-5-[1,3,4]-oxadiazole] | 0.82 µM
9 | 148 to 149 °C | c1ccc(-c2nnc(-c3cc4ccccc4o3)o2)cc1 [Compound 134OD25-28] | 1.1 µM
10 | 70 to 71 °C | COc1cccc(-c2nnc(-c3ccoc3)o2)c1 [Compound 134OD25-32, 2-(3-Furyl)-5-(3-methoxyphenyl)-[1,3,4]-oxadiazole] | 2.8 µM
11 |  | CC(C)Oc1cccc(-c2nnc(-c3ccoc3)o2)c1 [Compound 134OD25-34] | 1.5 µM
12 | 82 to 83 °C | Cc1cccc(-c2nnc(-c3cccc(C)c3)o2)c1 [Compound 134OD25-40, 2,5-Bis (3-tolyl)-1,3,4-oxadiazole] | 0.17 µM
13 |  | c1ccc(-c2nnc(-c3ccccn3)o2)cc1 [Compound 134OD25-46, 2-(2-Pyridyl)-5-phenyl-1,3,4-oxadiazole] | 0.37 µM
14 |  | COc1cccc(-c2nnc(N3CCOCC3)s2)c1 [Compound 134TD25-1] | 0.89 µM
15 |  | CC(C)Oc1cccc(-c2nnc(-c3ccoc3)s2)c1 [Compound 134TD25-4] | 0.58 µM
16 |  | c1ccc(-c2ccc(-c3ccccc3)o2)cc1 [Compound F25-10] | 2.5 µM

Row | melting point | Compound | EC (2-fold luciferase activity) [1]
17 |  | c1ccc(-c2cc(-c3ccccc3)on2)cc1 [IX35-1] | 0.75 µM
18 | 36 to 37 °C | COc1cccc(-c2cc(-c3ccoc3)on2)c1 [IX35-9, 5-(Furan-3-yl)-3-(3-methoxyphenyl)-isoxazole] | 0.53 µM
19 |  | COc1ccc(-c2nc(-c3ccccc3)co2)cc1 [OX24-5] | 0.32 µM
20 |  | c1ccc(-c2coc(-c3ccccc3)n2)cc1 [OX24-8] | 2.9 µM
21 |  | COc1ccc(-c2cc(-c3ccc(OC)cc3)n(C)n2)cc1 [PZ35-4, 3,5-Di(4-methoxyphenyl)-1-methylpyrazole] | 0.41 µM
22 |  | c1ccc(-c2cc(-c3ccccn3)[nH]n2)nc1 [PZ35-5] | 1.5 µM
23 |  | Cc1ccc(-c2csc(-c3ccccc3)n2)cc1 [TZ24-3] | 0.45 µM
24 |  | COc1ccc(-c2nc(-c3ccccc3)cs2)cc1 [TZ24-5, 2-(4-Methoxyphenyl)-4-phenylthiazole] | 3.7 µM
25 |  | COc1ccc(-c2nc(-c3ccco3)cs2)cc1 [TZ24-6, 4-(2-Furyl)-2-(4-methoxyphenyl)thiazole] | 1.2 µM
26 |  | COc1ccc(-c2nc(-c3ccccn3)cs2)cc1 [TZ24-11] | 1.2 µM
27 |  | Cc1ccc(-n2nnc(-c3ccc(Cl)cc3)n2)cc1 [TZ-1] | 0.33 µM
28 |  | Cc1ccc(-c2nnn(-c3ccc(Cl)cc3)n2)cc1 [TZ-2] | 0.42 µM
29 |  | Cc1ccc(-n2nnc(-c3ccccc3)n2)cc1 [TZ-3] | 0.2 µM
30 |  | Clc1ccc(-c2nnn(-c3ccc(Cl)cc3)n2)cc1 [TZ-4] | 0.53 µM
31 |  | COc1ccc(-n2nnc(-c3ccccc3)n2)cc1 [TZ-7] | 0.22 µM

Row | Compound | melting point | EC (2-fold luciferase activity) [1]
32 | Cc1ccc(-c2nnc(-c3ccco3)s2)cc1 [Compound 134TD25-5, 2-(2-Furyl)-5-p-tolyl-[1,3,4]-thiadiazole] | 110 to 113 °C | 0.98 µM
